In paper PMC8842277, “Highly Antiproliferative Latonduine and Indolo[2,3-c]quinoline Derivatives: Complex Formation with Copper(II) Markedly Changes the Kinase Inhibitory Profile” (Journal of Medicinal Chemistry, 2022):
pIC50: −log10 of the molar value.

How the values were obtained:
[1] = Thermodynamic solubility, UV–vis of saturated solutions
Protocol: The concentration of the compounds was determined by UV–vis spectrophotometry using stock solutions of the compounds with a known concentration dissolved in pure DMSO and 50% (v/v) DMSO/buffered aqueous solution for the calibration.

[2] = tested on: HCT-116 isogenic p53-knock-out subline; assay: MTT assay, 96 h; format: cell-based, human; conditions: read-out: IC50 HCT-116p53ko, mean
Description: The oncosuppressor protein p53 controls the cellular response to DNA strand breaks induced by cytotoxic drugs or by radiation.[58] The p53 protein may enhance cell chemosensitivity by promoting apoptosis via different mechanisms including activation of proapoptotic genes such as bax and repression of antiapoptotic genes such as bcl-2 or in contrast increase chemoresistance by promoting p21-mediated and p21-independent growth arrest and DNA repair and by activation of antiapoptotic genes such as bcl-x. There is strong evidence that the modulation of drug sensitivity by p53 may be both drug- and cell type-specific.[59] […] Accordingly, essential differences in chemosensitivity were observed between cells with wild-type p53 gene and cells with knocked out p53 gene by homologous recombination.[60]
Human colonic adenocarcinoma cell lines Colo 205 doxorubicin-sensitive (ATCC-CCL-222) and Colo 320/MDR-LRP multidrug resistant over-expressing ABCB1 (MDR1)-LRP (ATCC-CCL-220.1) were purchased from LGC Promochem, Teddington, UK. The cells were cultured in an RPMI 1640 medium supplemented with 10% heat-inactivated fetal bovine serum, 2 mM L-glutamine, 1 mM Na-pyruvate, and 10 mM HEPES. The semi-adherent human colon cancer cells were detached with Trypsin-Versene (EDTA) solution for 5 min at 37 °C. An MRC-5 human embryonal lung fibroblast cell line (ATCC CCL-171) was purchased from LGC Promochem, Teddington, UK. The cells were cultured in Eagle’s minimal essential medium (EMEM, containing 4.5 g L^–1 glucose) supplemented with a non-essential amino acid mixture, a selection of vitamins, and 10% heat-inactivated fetal bovine serum. The HCT-116 colon carcinoma cells and isogenic p53-knock-out subline were a gift of Prof. Bert Vogelstein from The Johns Hopkins Oncology Center. Cells were cultured in McCoy’s 5A medium supplemented with 10% heat-inactivated fetal bovine serum and 4 mM L-glutamine. All cell lines were incubated at 37 °C, in a 5% CO2, 95% air atmosphere.
MRC-5 non-cancerous human embryonic lung fibroblast and human colonic adeno-carcinoma cell lines (doxorubicin-sensitive Colo 205 and multidrug resistant Colo 320 colonic adenocarcinoma cells) were used to determine the effect of compounds on cell growth. The effects of increasing concentrations of compounds on cell growth were tested in 96-well flat-bottomed microtiter plates. The compounds were dissolved in DMSO and stock solutions of 10 mM were prepared. These were further diluted in the appropriate cell culture medium by twofold serial dilution starting from 100 or 10 μM for the compounds. The adherent human embryonal lung fibroblast cells were cultured in 96-well flat-bottomed microtiter plates using EMEM supplemented with 10% heat-inactivated fetal bovine serum. The density of the cells was adjusted to 1 × 10^4 cells in 100 μL per well, the cells were seeded for 24 h at 37 °C, 5% CO2, then the medium was removed from the plates containing the cells, and the dilutions of compounds previously made in a separate plate were added to the cells in 200 μL. In the case of the colonic adenocarcinoma cells, the twofold serial dilutions of compounds were prepared in 100 μL of RPMI 1640, horizontally. The semi-adherent colonic adenocarcinoma cells were treated with Trypsin-Versene (EDTA) solution. They were adjusted to a density of 1 × 10^4 cells in 100 μL of RPMI 1640 medium and were added to each well, with the exception of the medium control wells. […]

CHK2 = CHK2 (Homo sapiens, UniProt O96017); assay: Kinase panel screen; format: biochemical; conditions: 10 µM compound
Chain of CHK2 (O96017 whole entry): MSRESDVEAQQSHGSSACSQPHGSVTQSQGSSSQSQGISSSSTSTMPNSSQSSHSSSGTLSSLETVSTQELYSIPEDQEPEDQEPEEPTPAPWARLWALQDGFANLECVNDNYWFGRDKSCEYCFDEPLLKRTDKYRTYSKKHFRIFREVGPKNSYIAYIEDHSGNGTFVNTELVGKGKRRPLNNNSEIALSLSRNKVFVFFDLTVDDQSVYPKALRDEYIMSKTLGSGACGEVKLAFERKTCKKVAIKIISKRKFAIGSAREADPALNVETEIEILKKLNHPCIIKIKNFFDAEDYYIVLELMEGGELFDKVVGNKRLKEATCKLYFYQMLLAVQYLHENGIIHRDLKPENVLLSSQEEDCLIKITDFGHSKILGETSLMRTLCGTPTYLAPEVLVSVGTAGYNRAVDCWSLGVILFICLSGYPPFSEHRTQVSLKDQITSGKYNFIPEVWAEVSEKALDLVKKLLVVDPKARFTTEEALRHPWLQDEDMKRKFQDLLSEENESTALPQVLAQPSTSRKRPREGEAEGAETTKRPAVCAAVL
Description: (§1) Figure 7 (see also Table S4) summarizes the results of this assay as a histogram plotting the percentage of the remaining enzyme activity (x-axis) as a function of added lead compound (HL^8: blue trace, 8: red trace) for each of the 50 enzymes assayed (y-axis). […] Thus, the coordination to copper(II) completely changes the kinase inhibition profile of HL^8.
(§2) Figure 7 Screening of HL^8 and 8 against 50 enzymes: histogram with % remaining activity on the x-axis plotted against the compound identifier (blue trace: HL^8 and red trace: 8) and enzyme identifier on the […]. The screen was carried out at a compound concentration of 10 μM, an enzyme concentration of 50 nM, and an ATP concentration of 100 μM.
(§3) All kinase assays were carried out using Multidrop 384’s at room temperature in a total assay volume of 25.5 μL. To plates containing 0.5 μL of HL^8 and 8, DMSO control or acid blank […], 15 μL of an enzyme mix containing enzyme […], and excess peptide/protein substrate in buffer was added. Compounds were pre-incubated in the presence of the enzyme and peptide/protein substrate for 5 min before initiation of the reaction by addition of 10 μL of ATP (final concentration selected for each kinase at 5, 20, or 50 μM). Assays were carried out for 30 min at room temperature before termination by the addition of 5 μL of orthophosphoric acid. The assay plates were then harvested onto P81 Unifilter Plates by a PerkinElmer Harvester and air dried. The dry Unifilter plates were then sealed on the addition of MicroScint O and were counted in PerkinElmer Topcount scintillation counters.

HIPK2 = HIPK2 (Homo sapiens, UniProt Q9H2X6); assay: Kinase panel screen; format: biochemical; conditions: 10 µM compound
Chain of HIPK2 (Q9H2X6 whole entry): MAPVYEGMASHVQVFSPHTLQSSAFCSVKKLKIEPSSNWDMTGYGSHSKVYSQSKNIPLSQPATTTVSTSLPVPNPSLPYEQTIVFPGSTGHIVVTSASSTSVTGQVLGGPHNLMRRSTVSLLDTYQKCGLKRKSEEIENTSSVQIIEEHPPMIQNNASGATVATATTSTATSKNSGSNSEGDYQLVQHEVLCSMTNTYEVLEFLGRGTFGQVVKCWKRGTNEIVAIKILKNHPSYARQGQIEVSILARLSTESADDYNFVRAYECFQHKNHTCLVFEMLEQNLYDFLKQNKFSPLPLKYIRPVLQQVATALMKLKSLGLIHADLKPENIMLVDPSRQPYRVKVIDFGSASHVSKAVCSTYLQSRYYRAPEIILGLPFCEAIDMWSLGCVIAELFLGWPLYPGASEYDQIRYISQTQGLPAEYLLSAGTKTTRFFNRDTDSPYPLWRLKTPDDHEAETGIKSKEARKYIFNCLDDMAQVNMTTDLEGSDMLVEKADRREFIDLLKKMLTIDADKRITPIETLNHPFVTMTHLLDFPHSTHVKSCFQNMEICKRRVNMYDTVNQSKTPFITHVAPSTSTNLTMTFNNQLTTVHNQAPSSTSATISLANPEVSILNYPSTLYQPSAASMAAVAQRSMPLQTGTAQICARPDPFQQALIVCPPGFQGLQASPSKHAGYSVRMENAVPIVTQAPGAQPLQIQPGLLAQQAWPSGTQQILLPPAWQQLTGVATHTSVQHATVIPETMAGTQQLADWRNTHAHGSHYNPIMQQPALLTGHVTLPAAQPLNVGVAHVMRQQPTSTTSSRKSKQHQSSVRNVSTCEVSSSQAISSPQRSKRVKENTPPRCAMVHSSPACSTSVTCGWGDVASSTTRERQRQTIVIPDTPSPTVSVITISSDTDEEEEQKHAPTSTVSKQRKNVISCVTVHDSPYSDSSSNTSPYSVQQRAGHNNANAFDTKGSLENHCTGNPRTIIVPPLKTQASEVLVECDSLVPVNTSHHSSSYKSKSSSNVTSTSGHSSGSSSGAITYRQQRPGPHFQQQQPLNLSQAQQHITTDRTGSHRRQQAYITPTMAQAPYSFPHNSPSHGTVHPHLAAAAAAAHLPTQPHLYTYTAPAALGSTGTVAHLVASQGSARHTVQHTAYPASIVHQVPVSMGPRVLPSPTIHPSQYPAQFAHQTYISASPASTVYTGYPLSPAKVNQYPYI
Description: as §1, §2, §3

IGF-1R = IGF-1R (Homo sapiens, UniProt P08069); assay: Kinase panel screen; format: biochemical; conditions: 10 µM compound
Description: as §1, §2, §3

LKB1 = LKB1 (Homo sapiens, UniProt Q15831); assay: Kinase panel screen; format: biochemical; conditions: 10 µM compound
Chain of LKB1 (Q15831 whole entry): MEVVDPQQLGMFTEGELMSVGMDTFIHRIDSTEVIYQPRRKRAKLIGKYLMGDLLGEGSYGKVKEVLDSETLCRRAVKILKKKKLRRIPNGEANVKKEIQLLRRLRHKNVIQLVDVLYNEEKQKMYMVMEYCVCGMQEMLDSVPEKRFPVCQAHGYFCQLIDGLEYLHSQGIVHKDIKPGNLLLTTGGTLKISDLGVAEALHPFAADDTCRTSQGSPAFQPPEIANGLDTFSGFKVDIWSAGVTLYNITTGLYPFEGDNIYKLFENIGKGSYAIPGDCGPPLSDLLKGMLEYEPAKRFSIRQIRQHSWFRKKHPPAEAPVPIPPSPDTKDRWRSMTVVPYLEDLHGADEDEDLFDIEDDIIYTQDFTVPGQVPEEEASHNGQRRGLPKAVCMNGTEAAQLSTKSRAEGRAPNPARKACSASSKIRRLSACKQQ
Chain of LKB1 (Q7RTN6 whole entry partner): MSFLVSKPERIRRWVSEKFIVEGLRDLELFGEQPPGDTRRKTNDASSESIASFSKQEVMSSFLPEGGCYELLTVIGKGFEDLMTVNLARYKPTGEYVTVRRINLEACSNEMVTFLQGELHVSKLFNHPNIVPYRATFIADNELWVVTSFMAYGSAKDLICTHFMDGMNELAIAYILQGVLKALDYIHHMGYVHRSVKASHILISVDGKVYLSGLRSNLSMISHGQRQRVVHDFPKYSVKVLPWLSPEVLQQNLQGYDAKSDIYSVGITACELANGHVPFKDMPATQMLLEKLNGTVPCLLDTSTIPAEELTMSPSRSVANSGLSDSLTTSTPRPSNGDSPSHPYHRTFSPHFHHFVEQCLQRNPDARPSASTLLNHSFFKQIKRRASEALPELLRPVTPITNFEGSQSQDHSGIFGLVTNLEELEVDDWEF
Chain of LKB1 (Q9Y376 whole entry partner): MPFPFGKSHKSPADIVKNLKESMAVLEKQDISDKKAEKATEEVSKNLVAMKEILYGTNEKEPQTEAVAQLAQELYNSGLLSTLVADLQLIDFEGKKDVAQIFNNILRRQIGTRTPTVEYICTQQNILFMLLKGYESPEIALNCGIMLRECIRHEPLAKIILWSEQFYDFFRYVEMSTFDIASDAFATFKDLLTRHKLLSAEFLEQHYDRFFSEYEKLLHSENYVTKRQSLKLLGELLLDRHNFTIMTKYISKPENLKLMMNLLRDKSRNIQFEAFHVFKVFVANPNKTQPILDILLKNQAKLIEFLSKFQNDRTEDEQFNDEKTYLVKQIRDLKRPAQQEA
Description: as §1, §2, §3

MST2 = MST2 (Homo sapiens, UniProt Q13188); assay: Kinase panel screen; format: biochemical; conditions: 10 µM compound
Chain of MST2 (Q13188 whole entry): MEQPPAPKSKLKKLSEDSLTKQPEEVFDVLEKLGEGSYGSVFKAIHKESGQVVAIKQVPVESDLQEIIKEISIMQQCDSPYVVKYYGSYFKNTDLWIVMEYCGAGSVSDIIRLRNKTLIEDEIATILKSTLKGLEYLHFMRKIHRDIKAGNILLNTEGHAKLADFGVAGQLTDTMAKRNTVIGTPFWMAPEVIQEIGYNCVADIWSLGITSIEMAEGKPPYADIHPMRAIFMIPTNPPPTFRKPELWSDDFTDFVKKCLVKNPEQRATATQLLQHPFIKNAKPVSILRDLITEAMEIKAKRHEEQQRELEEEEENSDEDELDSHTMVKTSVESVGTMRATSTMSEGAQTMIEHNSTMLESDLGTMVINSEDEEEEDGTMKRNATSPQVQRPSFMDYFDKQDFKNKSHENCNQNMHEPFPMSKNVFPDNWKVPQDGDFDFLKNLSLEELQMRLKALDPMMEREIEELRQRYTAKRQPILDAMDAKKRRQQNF
Description: as §1, §2, §3

PAK4 = PAK4 (Homo sapiens, UniProt O96013); assay: Kinase panel screen; format: biochemical; conditions: 10 µM compound
Chain of PAK4 (O96013 whole entry): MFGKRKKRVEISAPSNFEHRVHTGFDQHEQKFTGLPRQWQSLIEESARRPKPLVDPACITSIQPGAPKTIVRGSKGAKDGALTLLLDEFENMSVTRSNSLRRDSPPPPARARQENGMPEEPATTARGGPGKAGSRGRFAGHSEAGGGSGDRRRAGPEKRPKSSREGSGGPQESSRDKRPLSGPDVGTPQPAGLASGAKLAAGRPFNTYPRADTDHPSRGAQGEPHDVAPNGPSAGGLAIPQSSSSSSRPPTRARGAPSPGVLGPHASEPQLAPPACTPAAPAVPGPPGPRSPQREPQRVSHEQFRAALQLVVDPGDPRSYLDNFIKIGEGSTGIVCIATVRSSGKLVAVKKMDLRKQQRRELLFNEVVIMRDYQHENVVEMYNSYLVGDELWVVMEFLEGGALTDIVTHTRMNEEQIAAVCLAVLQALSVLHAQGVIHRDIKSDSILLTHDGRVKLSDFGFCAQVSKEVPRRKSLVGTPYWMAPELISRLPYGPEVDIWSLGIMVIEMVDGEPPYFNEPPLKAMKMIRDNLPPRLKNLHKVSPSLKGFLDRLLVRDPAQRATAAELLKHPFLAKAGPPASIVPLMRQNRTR
Description: as §1, §2, §3

GSK3β = GSK3β (Homo sapiens, UniProt P49841); assay: Kinase panel screen and IC50; format: biochemical
Chain of GSK3β (P49841 whole entry): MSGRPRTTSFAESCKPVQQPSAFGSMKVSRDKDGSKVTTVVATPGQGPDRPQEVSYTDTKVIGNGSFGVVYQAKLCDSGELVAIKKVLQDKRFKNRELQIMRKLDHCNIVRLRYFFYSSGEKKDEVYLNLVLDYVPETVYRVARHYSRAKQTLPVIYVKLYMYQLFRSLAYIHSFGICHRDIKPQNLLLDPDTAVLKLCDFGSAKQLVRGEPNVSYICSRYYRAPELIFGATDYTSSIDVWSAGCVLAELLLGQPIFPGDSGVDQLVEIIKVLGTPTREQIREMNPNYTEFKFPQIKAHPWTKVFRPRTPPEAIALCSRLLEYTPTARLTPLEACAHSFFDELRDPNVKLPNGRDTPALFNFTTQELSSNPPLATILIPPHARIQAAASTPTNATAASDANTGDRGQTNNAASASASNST
Description: as §1, §2
Both compounds were screened against the respective enzymes, and IC50 values were determined.
as §3
IC50 values were determined by the International Centre for Kinase Profiling at the University of Dundee according to standard protocols published elsewhere.[109],[110]

AMPK (hum) = assay: Kinase panel screen; format: biochemical, human; conditions: 10 µM compound
Description: as §1, §2
as §3, with “Assays were carried out for 30 min at room temperature before termination by the addition of 5 μL of orthophosphoric acid. The assay plates were then harvested onto P81 Unifilter Plates by a PerkinElmer Harvester and air dried.” left out

In the case of `CC(=NNc1nc2ccccc2c2c1[nH]c1ccc(Br)cc12)c1ccc(CN2CCOCC2)cn1.[Cl][Cu][Cl]` [compound 8, CuCl2(HL^8)·H2O], the “Thermodynamic solubility (S)” value ([1]; pH 5) was 34.3 µM, the “Thermodynamic solubility (S)” value ([1]; pH 7.4) was 10.4 µM and the pIC50 [2] was 7.39. The “% remaining activity” value (CHK2) was 119%, the “% remaining activity” value (HIPK2) was 108% and the “% remaining activity” value (IGF-1R) was 60%. The “% remaining activity” value (LKB1) was 107%, the “% remaining activity” value (MST2) was 82% and the “% remaining activity” value (PAK4) was 144%. For the same compound, the “% remaining activity” value (GSK3β; GSK3β, 10 µM compound) was 32%, the pIC50 (GSK3β; read-out: IC50 against GSK3β) was 5.79 and the “% remaining activity” value (AMPK (hum)) was 91%.
